The test system of one experiment is ERK phosphorylation. The experiment is described as follows: ERK activation signalling (ERK phosphorylation) in treated cells. In kind it is cell-based. As to conditions: FIG. 16. As to the method: (§1) No effect on ERK phosphorylation could be observed when the cells were treated with PC (FIGS. 15 and 16).
The subject of another experiment is M10 melanoma cells. Kind of experiment: Modified Boyden chamber invasion assay, M10 melanoma cells. In kind it is cell-based, human. Particulars: 500 nM, compared to control PC-treated cells, mean, FIG. 14. The method, then:
Human microvascular endothelial (HMEC) cells line derived from dermal microvasculature (T. Lawley, Emory University, Atlanta, GA) were maintained in MCDB-131 medium (Gibco, Invitogen) with 10% fetal bovine serum (FBS) (Invitrogen), 2 ml glutamine (Invitrogen), 10 ng/ml endothelial growth factor (Upstate Biotechnology/Millipore), and 1 μg/ml hydrocortisone (Sigma-Aldrich). Primary melanoma M10 cells, established from patient primary nodular melanoma were maintained in RPMI medium (Gibco, Invitogen) with 10% FBS, Hepes 1 M, pyruvate Nas, and glutamine (Invitrogen). Human breast carcinoma MDA-MB-231 cells were maintained in Dulbecco's modified Eagle's medium (DMEM) (Gibco, Invitogen) with 10% FBS (Invitrogen) and 2m1 glutamine (Invitrogen). Melanoma BLM cells (American Type Culture Collection (ATCC Manassas, Va.)) were maintained in DMEM containing 4.5 g/l glucose, 10% FBS, 100 U/ml penicillin and […] streptomycin. […]
The in vitro migration (on uncoated filters) and invasion (on coated filters with matrigel, BD Bioscience) were performed using a modified Boyden chamber in 24-well plates and […] pore filter inserts (BD Bioscience). After 24h of incubation, cells were fixed, stained with crystal violet 0.5% and counted under a light microscope. […]

In experiment [1] the target is T1, EMMPRIN/VEGFR-2 interaction (Homo sapiens, UniProt P35968).
T1 construct: endogenous in cells; HMEC and M10 are the cells used in the neighbouring peptide experiments
T1 sequence (P35968 20-1356): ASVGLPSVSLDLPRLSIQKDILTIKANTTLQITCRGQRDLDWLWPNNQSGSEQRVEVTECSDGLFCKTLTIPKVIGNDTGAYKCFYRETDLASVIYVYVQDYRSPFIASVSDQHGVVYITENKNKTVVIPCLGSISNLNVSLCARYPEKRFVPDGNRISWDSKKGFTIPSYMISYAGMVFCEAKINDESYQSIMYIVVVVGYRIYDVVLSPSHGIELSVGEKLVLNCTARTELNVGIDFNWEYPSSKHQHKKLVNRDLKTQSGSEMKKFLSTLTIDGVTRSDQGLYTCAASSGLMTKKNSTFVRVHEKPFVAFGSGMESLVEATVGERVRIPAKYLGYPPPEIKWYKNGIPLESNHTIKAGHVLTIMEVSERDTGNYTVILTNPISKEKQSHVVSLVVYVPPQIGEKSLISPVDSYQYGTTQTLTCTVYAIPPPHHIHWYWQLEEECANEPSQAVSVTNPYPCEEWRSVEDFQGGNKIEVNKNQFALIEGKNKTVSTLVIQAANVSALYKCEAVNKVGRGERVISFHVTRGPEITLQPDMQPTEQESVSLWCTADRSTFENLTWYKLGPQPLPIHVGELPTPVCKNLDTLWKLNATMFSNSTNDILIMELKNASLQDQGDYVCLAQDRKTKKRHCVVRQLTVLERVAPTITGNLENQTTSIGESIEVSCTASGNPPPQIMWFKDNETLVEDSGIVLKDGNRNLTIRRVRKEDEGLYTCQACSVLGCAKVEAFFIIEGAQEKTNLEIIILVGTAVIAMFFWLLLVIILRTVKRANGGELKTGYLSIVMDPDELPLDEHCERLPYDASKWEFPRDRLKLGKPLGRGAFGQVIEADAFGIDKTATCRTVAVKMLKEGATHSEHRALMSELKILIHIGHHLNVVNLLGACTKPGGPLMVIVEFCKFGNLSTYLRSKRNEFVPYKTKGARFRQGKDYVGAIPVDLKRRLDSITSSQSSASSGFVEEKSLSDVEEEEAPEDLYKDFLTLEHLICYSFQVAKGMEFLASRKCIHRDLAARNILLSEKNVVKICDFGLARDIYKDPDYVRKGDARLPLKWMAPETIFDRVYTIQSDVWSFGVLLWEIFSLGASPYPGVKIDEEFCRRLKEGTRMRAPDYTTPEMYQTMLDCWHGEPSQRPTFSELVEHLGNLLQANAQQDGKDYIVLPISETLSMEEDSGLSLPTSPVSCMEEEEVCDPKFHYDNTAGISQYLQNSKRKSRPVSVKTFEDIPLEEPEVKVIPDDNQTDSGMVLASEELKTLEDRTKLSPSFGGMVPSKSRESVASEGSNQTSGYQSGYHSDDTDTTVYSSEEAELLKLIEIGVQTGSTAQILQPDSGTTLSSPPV
Kind of experiment: Immunoprecipitation of EMMPRIN/VEGFR-2 interaction in treated cells. In kind it is cell-based. Particulars: FIG. 15. The method, then:
For immunoprecipitation, cell lysates were incubated with antibodies against targeted proteins and Protein G-sepharose beads (Sigma). Immunoprecipitated proteins were subjected to sodium dodecyl sulphate-polyacrylamide gel electrophoresis then transferred to Nitrocellulose membranes and probed with anti-EMMPRIN mAb (555961, BD-Pharmingen), anti-VEGF (C-1) mAb (Sc-7269, Santa Cruz), anti-VEGFR-2 rabbit pAb (Sc-504, Santa Cruz-) or anti-pVEGFR-2 (Tyr 1175) rabbit mAb (2478, Cell Signaling). The proteins were visualized with ECL reagent (Pierce), and their expression was normalized relative to total cell lysate protein concentration.
as §1

A further experiment relates to HMEC endothelial cells. Kind of experiment: MTT assay, proliferation of HMEC endothelial cells. Particulars: treatment for 48 h, FIG. 13. It is filed as cell-based, human. As to the method:
Human microvascular endothelial (HMEC) cells line derived from dermal microvasculature (T. Lawley, Emory University, Atlanta, GA) were maintained in MCDB-131 medium (Gibco, Invitogen) with 10% fetal bovine serum (FBS) (Invitrogen), 2 ml glutamine (Invitrogen), 10 ng/ml endothelial growth factor (Upstate Biotechnology/Millipore), and 1 μg/ml hydrocortisone (Sigma-Aldrich). Primary melanoma M10 cells, established from patient primary nodular melanoma were maintained in RPMI medium (Gibco, Invitogen) with 10% FBS, Hepes 1 M, pyruvate Nas, and glutamine (Invitrogen). Human breast carcinoma MDA-MB-231 cells were maintained in Dulbecco's modified Eagle's medium (DMEM) (Gibco, Invitogen) with 10% FBS (Invitrogen) and 2m1 glutamine (Invitrogen). Melanoma BLM cells (American Type Culture Collection (ATCC Manassas, Va.)) were maintained in DMEM containing 4.5 g/l glucose, 10% FBS, 100 U/ml penicillin and […] streptomycin. HEK293T cells (ATCC) were cultured in DMEM medium (Gibco, Invitogen) supplemented with 10% FBS (Invitrogen), 100 U/ml penicillin, […] streptomycin and 2 ml glutamine (Invitrogen).
As VEGFR-2 has been implicated in regulation of endothelial cells migration/invasion and proliferation processes, we first investigated the effect of EMMPRIN inhibitor peptide (PI) on endothelial cell proliferation. […]

Another experiment concerns the target T2, VEGFR-2 (human, UniProt P35968 20-1356).
T2 construct: Endogenous receptor of human cells (HMEC, M10, MDA-MB-231, BLM); the whole entry is named; also called KDR
The experiment is described as follows: VEGFR-2 immunoprecipitation, EMMPRIN western blot, transfected BLM-EMMPRIN-miRNA cells. As to the method: For immunoprecipitation, cell lysates were incubated with antibodies against targeted proteins and Protein G-sepharose beads (Sigma). […] The proteins were visualized with ECL reagent (Pierce), and their expression was normalized relative to total cell lysate protein concentration.
(In general: Immunoblotting shows a protein as a band on a membrane.)

T2 sequence (P35968 20-1356 limits assumed): as the sequence (P35968 20-1356) above

As for “PI: EMMPRIN peptide inhibitor (PI); sequence not specified in the text”, in the experiment with ERK phosphorylation, the ERK phosphorylation entry is “significant decrease”. The “decrease in M10 cell invasion capacity” value in the experiment on M10 melanoma cells was 60%. For the same molecule, the EMMPRIN/VEGFR-2 interaction result in experiment [1] (100 nM) and in experiment [1] (500 nM) was “able to decrease EMMPRIN/VEGFR-2 interaction” throughout. Further, the “inhibition of proliferation of HMEC cells” value with HMEC endothelial cells is recorded as “approx. 50%”.

B1: EMMPRIN D136A (receptor)
chain: AAGTVFTTVEDLGSKILLTCSLNDSATEVTGHRWLKGGVVLKEDALPGQKTEFKVDSDDQWGEYSCVFPPEPMGTANIQLHGPPRVKAVKSSEHINEGETAMLVCKSESVPPVTAWAWYKITDSEDKALMNGSESRFFVSSSQGRSELHIENLNMEADPGQYRCNGTSSKGSDQAIITLRVCSHLAALWPFLGIVAEVLVLVTIIFIYEKRRKPEDVLDDDDAGSAPLKSSGQHQNDKGKNVRQRNSS
notes: Full-length EMMPRIN cDNA mutant transfected into BLM-EMMPRIN-miRNA cells; also called control D136A; negative control D136A mutant
For B1, the binding result with VEGFR-2 is listed as “binds”.

The values are drawn from patent US20170313758A1, “Polypeptides for the Treatment of Angiogenesis or Lymphangiogenesis-Related Diseases” (INSERM (Institut National de la Sante et de la Recherche …, priority 2014, published 2017).
